“Also recorded” adds a separate entry of the source.
Columns and labels:
Cln3^Δex7/8 mice = assay: Autofluorescent storage material (ASM) in brain of Cln3^Δex7/8 mice; format: in vivo, mouse; conditions: 16 weeks; for auto florescent storage material: LM11A-31 0.6 mg/mL in drinking water
Method: FIG. 16. Effects of treatment with LM11A-31 on auto florescent storage material. […] Upon sacrifice, one hemisphere of brain was sectioned at 50 microns on a vibratome; DAB staining immunohistochemistry was then performed using anti-GFAP (Dako, Z0334; 1:5000), anti-CD68 (AbD Serotec, MCA1957; 1:2000), anti-rabbit biotinylated (Vector Labs. BA-1000 1:1000), and anti-rat (Vector Labs, BA-9400 1:1000). Sections were imaged and analyzed using an Aperio Digital Pathology Slide Scanner (AT2) and associated software. The flash-frozen brain was sectioned into 16 μm slices and placed on slides. Slides were post-fixed for 20 minutes in chilled 10% neutral buffered formalin (NBF) and underwent serial ethanol dehydration. To quantify accumulation of autofluorescent storage material, DAPI was applied to slides and coverslipped with aqueous mounting media (Dako Faramount, Agilent, S302580-2). Sections were imaged using a Nikon NiE microscope and associated software. […] Nested one-way ANOVA. Mean±S.E.M. Sidak's multiple comparisons test. Compared to the wild type vehicle treated group. #p<0.05, ##p<0.01, ###p<0.001, ####p<0.0001. Compared to mutant vehicle treated group. *p<0.05, **p<0.01, ***p<0.001, ****p<0.0001. Scale bar=100 μm.
Since LM11A-31 reduced lysosomal pathology and increased lysosomal function in cell models of diverse lysosomal storage disorders, we asked whether treatment with LM11A-31 could reduce histopathological markers of disease severity in animal models of CLN3-Batten disease. […] Sections were imaged and analyzed using an Aperio Digital Pathology Slide Scanner (AT2) and associated software. […] To quantify accumulation of autofluorescent storage material, DAPI was applied to slides and coverslipped with aqueous mounting media (Dako Faramount, Agilent, S302580-2). […]
Specific experimental details are included in figure legends. […] Body weight was measured at 4, 6, 8, 12, and 16 weeks of age. […]

Cathepsin D = Cathepsin D enzyme in MEF lysates; format: cell-based, mouse
Method: Since LM11A-31 stimulates the nuclear translocation of transcription factors responsible for lysosome biogenesis, we asked whether LM11A-31 increases the overall activity levels of lysosomalenzymes in cellulo. […] Wild type (WT) and mutant cells were treated with vehicle or LM11A-31 (100 nM). Cells were plated on day 0 and dosed with drug-containing media on DIV3 and DIV5. Cells were lysed, and protein quantification and enzyme activity assay were performed on DIV7. Data was analyzed with GraphPad Prism™. Two-way ANOVA. Mean±S.E.M. Tukey's multiple comparisons test. *p<0.05, **p<0.01, ***p<0.001, ****p<0.0001. […] Palmitoyl-protein thioesterase 1 (PPT1) is the lysosomal enzyme mutated in CLN1 disease and removes thioester-linked fatty acyl groups from modified cysteines of substrate proteins. Tripeptidyl peptidase 1 (TPP1) is the lysosomal enzyme mutated in CLN2 disease and has broad substrate specificity against various proteins degraded in the lysosome after cleavage. Mutations in the CTSD gene, encoding cathepsin d, a lysosomal protease that is involved in the recycling and degradation, is a known cause of Cln10 disease.

levels of Cathepsin D (Cathepsin D; LM11A-31 100 nM, Cln2^R207X and Cln3^Δex7/8 MEFs, DIV7) | Compound | auto florescent storage material (Cln3^Δex7/8 mice; S1BF, CA3, or motor cortex) | auto florescent storage material (Cln3^Δex7/8 mice; VPM/VPL and visual cortex) | overall levels of activity for Cathepsin D enzyme in cell lysates (Cathepsin D; LM11A-31, overall statement (FIG. 15B)) | accumulation of autofluorescent storage material (ASM) (Cln3^Δex7/8 mice; semaglutide 2.571 μg/mouse, 25.71 μg/mouse s.c. three times a week, S1BF, CA3, VPM/VPL)
significantly decreased | CC[C@H](C)[C@H](N)C(=O)NCCN1CCOCC1 [LM11A-31, N-[2-(morpholin-4-yl)ethyl]-L-isoleucinamide] | did not decrease | reduced ASM to levels that were not statistically distinguishable from wild type; also recorded: slight decrease | increased the overall levels of activity | 
 | semaglutide |  |  |  | had no significant effect
